US12180193B2, “Accelerating fibrosarcoma protein degrading compounds and associated methods of use” (Arvinas Operations, Inc., priority 2020, dated 2024)

Tests used:
BRAF G466V = molecular target: T1, BRAF G466V (Homo sapiens, UniProt P15056, G466V); experiment: Cellular assay of target protein degradation, T-Rex 293 cells stably transfected with HA-BRAF G466V (HA immunofluorescence, high content imaging); assay type: cell-based; details: T-Rex 293 HA-BRAF G466V; for DC50: half maximal degradation, read-out: BRaf G466V DC50; for Dmax: maximum degradation observed
T1 construct: expressed in transfected cells
T1 sequence (P15056 whole entry G466V): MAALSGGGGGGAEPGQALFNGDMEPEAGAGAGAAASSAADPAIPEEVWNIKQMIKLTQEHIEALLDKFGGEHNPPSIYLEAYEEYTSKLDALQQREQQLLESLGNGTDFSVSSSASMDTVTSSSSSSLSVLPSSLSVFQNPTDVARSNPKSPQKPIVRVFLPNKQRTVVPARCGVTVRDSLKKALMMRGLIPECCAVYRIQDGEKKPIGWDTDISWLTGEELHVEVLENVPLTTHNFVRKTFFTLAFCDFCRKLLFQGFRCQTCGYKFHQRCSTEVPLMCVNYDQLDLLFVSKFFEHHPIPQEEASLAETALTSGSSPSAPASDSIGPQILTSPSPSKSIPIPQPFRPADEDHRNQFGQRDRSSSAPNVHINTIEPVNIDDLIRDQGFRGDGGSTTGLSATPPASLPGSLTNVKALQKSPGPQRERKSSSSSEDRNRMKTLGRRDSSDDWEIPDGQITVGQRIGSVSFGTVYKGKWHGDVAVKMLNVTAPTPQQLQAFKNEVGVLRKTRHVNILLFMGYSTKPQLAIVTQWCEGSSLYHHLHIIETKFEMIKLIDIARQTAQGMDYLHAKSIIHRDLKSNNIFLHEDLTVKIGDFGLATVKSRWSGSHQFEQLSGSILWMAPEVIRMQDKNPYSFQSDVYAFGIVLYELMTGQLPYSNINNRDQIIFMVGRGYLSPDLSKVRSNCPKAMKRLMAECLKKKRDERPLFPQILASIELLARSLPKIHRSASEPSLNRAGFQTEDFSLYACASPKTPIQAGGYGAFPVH
Outline: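 Doxycycline-induced (0.75 ng/mL) cells treated 24 h at 37 °C with compound from 30 nM to 3 pM (0.1% DMSO). After fixation and permeabilisation, HA-tagged BRAF G466V immunostained and quantified by high-content imaging. DC50 and Dmax (percent of control) derived.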

BRAF V600E = molecular target: T2, BRAF V600E (Homo sapiens, UniProt P15056, V600E); experiment: Cellular assay of target protein degradation, T-Rex 293 cells stably transfected with HA-BRAF_V600E (HA immunofluorescence, high content imaging); assay type: cell-based; details: T-Rex 293 HA-BRAF V600E; for DC50: half maximal degradation, read-out: BRaf V600E DC50; for Dmax: maximum degradation observed
T2 construct: expressed in transfected cells
T2 sequence (P15056 whole entry V600E): as the sequence (P15056 whole entry G466V) above, with V466G, V600E counted along it
Outline: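 Doxycycline-induced (1 ng/mL) T-Rex 293 cells expressing HA-BRAF V600E treated 24 h at 37 °C with compound at 1 μM to 0.1 nM final in 0.1% DMSO. Remaining HA-tagged protein quantified by fixed-cell anti-HA immunofluorescence and high-content imaging; DC50 and Dmax (% of control) derived.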

Row | SMILES | DC50 (BRAF G466V) [nM] | Dmax (BRAF G466V) [%] | DC50 (BRAF V600E) [nM] | Dmax (BRAF V600E) [%]
1 | COc1cc(OCCCCN2CCN(c3ccc(-c4cnc5[nH]cc(C(=O)c6c(F)ccc(NS(=O)(=O)N7CC[C@@H](F)C7)c6F)c5c4)cc3)CC2)cc2c1C(=O)N(C1CCC(=O)NC1=O)C2 (stereo partly drawn) [Compound 331, (3R)-N-[3-(5-{4-[4-(4-{[2-(2,6-dioxopiperidin-3-yl)-7-methoxy-1-oxo-2,3-dihydro-1H-isoindol-5-yl]oxy}butyl)piperazin-1-yl]phenyl}-1H-pyrrolo[2,3-b]pyridine-3-carbonyl)-2,4-difluorophenyl]-3-fluoropyrrolidine-1-sulfonamide] | 1 to 10 | 35 to 70 | 5 to 50 | 35 to 70
2 | O=C1CCC(N2Cc3cc(CCCCN4CCC(c5ccc(-c6cnc7[nH]cc(C(=O)c8c(F)ccc(NS(=O)(=O)N9CC[C@@H](F)C9)c8F)c7c6)cc5)CC4)ccc3C2=O)C(=O)N1 (stereo partly drawn) [Compound 332, (3R)-N-(3-{5-[4-(1-{4-[2-(2,6-dioxopiperidin-3-yl)-1-oxo-2,3-dihydro-1H-isoindol-5-yl]butyl}piperidin-4-yl)phenyl]-1H-pyrrolo[2,3-b]pyridine-3-carbonyl}-2,4-difluorophenyl)-3-fluoropyrrolidine-1-sulfonamide] | 1 to 10 | > 70 | 5 to 50 | 35 to 70
3 | CCCS(=O)(=O)Nc1ccc(F)c(-n2cc(-c3cncnc3)c3nc(N(C)C4CCN(C(=O)CCOCCOCCOCCOCCNc5cccc6c5C(=O)N(C5CCC(=O)NC5=O)C6=O)CC4)ccc32)c1F (stereo not drawn) [Compound 338] | 10 to 30 | 35 to 70 | 50 to 500 | 35 to 70
4 | O=C1CC[C@H](NC(=O)c2ccc(N3CCC(CN4CCN(c5ccc(-c6cnc7[nH]cc(C(=O)c8c(F)ccc(NS(=O)(=O)N9CC[C@@H](F)C9)c8F)c7c6)cc5)CC4)CC3)cc2F)C(=O)N1 [Compound 339, 4-(4-{[4-(4-{3-[2,6-difluoro-3-({[(3R)-3-fluoropyrrolidin-1-yl]sulfonyl}amino)benzoyl]-1H-pyrrolo[2,3-b]pyridin-5-yl}phenyl)piperazin-1-yl]methyl}piperidin-1-yl)-N-[(3S)-2,6-dioxopiperidin-3-yl]-2-fluoorobenzamide] | 1 to 10 | > 70 | 5 to 50 | 35 to 70
5 | O=C1CC[C@@H](NC(=O)c2ccc(N3CCC(CN4CCN(c5ccc(-c6cnc7[nH]cc(C(=O)c8c(F)ccc(NS(=O)(=O)N9CC[C@@H](F)C9)c8F)c7c6)cc5)CC4)CC3)cc2F)C(=O)N1 [Compound 340] | 1 to 10 | 35 to 70 | 50 to 500 | < 35
6 | O=C1CC[C@H](NC(=O)c2ccc(N3CCN(CC4CCN(c5ccc(-c6cnc7[nH]cc(C(=O)c8c(F)ccc(NS(=O)(=O)N9CC[C@@H](F)C9)c8F)c7c6)cc5)CC4)CC3)cc2F)C(=O)N1 [Compound 341, 4-(4-{[1-(4-{3-[2,6-difluoro-3-({[(3R)-3-fluoropyrrolidin-1-yl]sulfonyl}amino)benzoyl]-1H-pyrrolo[2,3-b]pyridin-5-yl}phenyl)piperidin-1-yl]methyl}piperazin-1-yl)-N-[(3S)-2,6-dioxopiperidin-3-yl]-2-fluorobenzamide] | 1 to 10 | > 70 | 5 to 50 | 35 to 70
7 | O=C1CC[C@@H](NC(=O)c2ccc(N3CCN(CC4CCN(c5ccc(-c6cnc7[nH]cc(C(=O)c8c(F)ccc(NS(=O)(=O)N9CC[C@@H](F)C9)c8F)c7c6)cc5)CC4)CC3)cc2F)C(=O)N1 [Compound 342, 4-(4-{[1-(4-{3-[2,6-difluoro-3-({[(3R)-3-fluoropyrrolidin-1-yl]sulfonyl}amino)benzoyl]-1H-pyrrolo[2,3-b]pyridin-5-yl}phenyl)piperidin-4-yl]methyl}piperazin-1-yl)-N-[(3R)-2,6-dioxopiperidin-3-yl]-2-fluorobenzamide] | 1 to 10 | 35 to 70 | 50 to 500 | < 35

Further lines, results first:

Row | DC50 (BRAF G466V) [nM] | Dmax (BRAF G466V) [%] | DC50 (BRAF V600E) [nM] | Dmax (BRAF V600E) [%] | SMILES
8 | 1 to 10 | > 70 | 5 to 50 | 35 to 70 | O=C1CCC(N2Cc3cc(N4CCC(CN5CC(C6CN(c7ccc(-c8cnc9[nH]cc(C(=O)c%10c(F)ccc(NS(=O)(=O)N%11CC[C@@H](F)C%11)c%10F)c9c8)cc7)C6)C5)CC4)ccc3C2=O)C(=O)N1 (stereo partly drawn) [Compound 330, (3R)-N-[3-(5-{4-[1′-({1-[2-(2,6-dioxopiperidin-3-yl)-1-oxo-2,3-dihydro-1H-isoindol-5-yl]piperidin-4-yl}methyl)-[3,3′-biazetidin]-1-yl]phenyl}-1H-pyrrolo[2,3-b]pyridine-3-carbonyl)-2,4-difluorophenyl]-3-fluoropyrrolidine-1-sulfonamide]
9 | 1 to 10 | < 35 | > 500 |  | O=C1CCC(N2Cc3cc(N4CCN(CC5CCN(c6ccc(-c7cnc8[nH]cc(C(=O)c9c(F)ccc(NS(=O)(=O)N%10CC[C@@H](F)C%10)c9F)c8c7)cc6)CC5)CC(F)(F)C4)ccc3C2=O)C(=O)N1 (stereo partly drawn) [Compound 333, (3R)-N-[3-(5-{4-[4-({4-[2-(2,6-dioxopiperidin-3-yl)-1-oxo-2,3-dihydro-1H-isoindol-5-yl]-6,6-difluoro-1,4-diazepan-1-yl}methyl)piperidin-1-yl]phenyl}-1H-pyrrolo[2,3-b]pyridine-3-carbonyl)-2,4-difluorophenyl]-3-fluoropyrrolidine-1-sulfonamide]
10 | 1 to 10 | > 70 | 50 to 500 | 35 to 70 | O=C1CCC(N2Cc3cc(N4CC(CN5CCC(C6(c7ncc(-c8cnc9[nH]cc(C(=O)c%10c(F)ccc(NS(=O)(=O)N%11CC[C@@H](F)C%11)c%10F)c9c8)cn7)CC6)CC5)C4)ccc3C2=O)C(=O)N1 (stereo partly drawn) [Compound 334]
11 | > 30 |  | > 500 |  | O=C1CC[C@H](N2Cc3cc(N4CC[C@@H](COc5ccc(-c6cnc7[nH]cc(C(=O)c8c(F)ccc(NS(=O)(=O)N9CC[C@@H](F)C9)c8F)c7c6)cc5)C4)ccc3C2=O)C(=O)N1 [Compound 335, (3R)-N-{3-[5-(4-{[(3R)-1-{2-[(3S)-2,6-dioxopiperidin-3-yl]-1-oxo-2,3-dihydro-1H-isoindol-5-yl}pyrrolidin-3-yl]methoxy}phenyl)-1H-pyrrolo[2,3-b]pyridine-3-carbonyl]-2,4-difluorophenyl}-3-fluoropyrrolidine-1-sulfonamide]
12 | > 30 |  | > 500 | 35 to 70 | O=C1CC[C@@H](N2Cc3cc(N4CC[C@@H](COc5ccc(-c6cnc7[nH]cc(C(=O)c8c(F)ccc(NS(=O)(=O)N9CC[C@@H](F)C9)c8F)c7c6)cc5)C4)ccc3C2=O)C(=O)N1 [Compound 336, (3R)-N-{3-[5-(4-{[(3R)-1-{2-[(3R)-2,6-dioxopiperidin-3-yl]-1-oxo-2,3-dihydro-1H-isoindol-5-yl}pyrrolidin-3-yl]methoxy}phenyl)-1H-pyrrolo[2,3-b]pyridine-3-carbonyl]-2,4-difluorophenyl}-3-fluoropyrrolidine-1-sulfonamide]
13 | 1 to 10 | > 70 | 5 to 50 | 35 to 70 | Cn1c(=O)n(C2CCC(=O)NC2=O)c2cccc(C3CCN(CC4CCN(c5ccc(-c6cnc7[nH]cc(C(=O)c8c(F)ccc(NS(=O)(=O)N9CC[C@@H](F)C9)c8F)c7c6)cc5)CC4)CC3)c21 (stereo partly drawn) [Compound 337, (3R)—N-(3-(5-(4-(4-((4-(1-(2,6-dioxopiperidin-3-yl)-3-methyl-2-oxo-2,3-dihydro-1H-benzo[d]imidazol-4-yl)piperidin-1-yl)methyl)piperidin-1-yl)phenyl)-1H-pyrrolo[2,3-b]pyridine-3-carbonyl)-2,4-difluorophenyl)-3-fluoropyrrolidine-1-sulfonamide]
